From patent US20160046618A1, “Cyclopropyl Fused Thiazin-2-Amine Compounds as Beta-Secretase Inhibitors and Methods of Use” (AMGEN INC., priority 2014, published 2016) come the findings set out here.

Broadly, the IC50 is the point on the concentration scale where inhibition reaches its midpoint.

Like-named read-outs stand apart in the source and are kept apart here.

One experiment deals with human recombinant BACE1 (Homo sapiens (Human), UniProt P56817). In words: In vitro enzymatic BACE1 FRET assay. It counts as biochemical. The following applies: read-out: IC50 IP (μM) BACE1 enzyme. An outline of the steps: (§1)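 Reactions were initiated by adding 50 nM of a peptide carrying fluorophore and quencher on opposite sides of the cleavage site and ran for one hour. Tris buffer then brought the pH to neutrality, ending the reaction, and fluorescence was measured (488 nm excitation, 590 nm emission).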
Chain of human recombinant BACE1 (P56817 46-501): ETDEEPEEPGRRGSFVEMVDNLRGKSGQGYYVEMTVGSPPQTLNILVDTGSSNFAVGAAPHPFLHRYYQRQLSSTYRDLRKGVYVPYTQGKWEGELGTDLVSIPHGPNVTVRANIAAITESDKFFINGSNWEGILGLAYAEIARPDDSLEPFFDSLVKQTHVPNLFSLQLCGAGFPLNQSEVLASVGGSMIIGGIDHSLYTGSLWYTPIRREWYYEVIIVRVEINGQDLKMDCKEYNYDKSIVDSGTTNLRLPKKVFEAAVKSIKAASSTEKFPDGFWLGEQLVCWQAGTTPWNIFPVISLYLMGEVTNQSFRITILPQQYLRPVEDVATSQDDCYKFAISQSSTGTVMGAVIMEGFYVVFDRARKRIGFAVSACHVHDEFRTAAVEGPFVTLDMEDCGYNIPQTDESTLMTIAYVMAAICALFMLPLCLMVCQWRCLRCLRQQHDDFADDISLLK

In a further experiment the target is human recombinant BACE2 (Homo sapiens (Human), UniProt Q9Y5Z0). In words: In vitro enzymatic BACE2 FRET assay. The experiment is classed as biochemical. The following applies: read-out: IC50 IP (μM) BACE2 enzyme. An outline of the steps: as §1
Chain of human recombinant BACE2 (Q9Y5Z0 63-518): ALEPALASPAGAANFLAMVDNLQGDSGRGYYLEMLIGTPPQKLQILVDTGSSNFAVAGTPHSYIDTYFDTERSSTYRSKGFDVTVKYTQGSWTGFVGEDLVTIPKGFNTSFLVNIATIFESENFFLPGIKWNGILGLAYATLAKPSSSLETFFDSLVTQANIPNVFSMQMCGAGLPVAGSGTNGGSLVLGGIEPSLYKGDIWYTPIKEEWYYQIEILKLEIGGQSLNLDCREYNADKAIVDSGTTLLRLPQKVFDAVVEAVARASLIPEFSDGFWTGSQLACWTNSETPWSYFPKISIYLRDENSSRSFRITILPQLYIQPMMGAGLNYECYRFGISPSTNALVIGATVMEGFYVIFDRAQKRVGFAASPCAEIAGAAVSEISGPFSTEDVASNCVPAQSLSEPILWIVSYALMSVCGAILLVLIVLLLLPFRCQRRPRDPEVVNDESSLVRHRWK
For experiment [1], the system named is Aβ40 in conditioned medium of cells stably expressing Amyloid Precursor Protein (APP). In words: In vitro BACE-1 cell-based assay (Aβ40 sandwich ELISA). The conditions noted are these: read-out: IC50 IP (μM) BACE1 cell. An outline of the steps:
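Aβ40 in supernatants measured by time-resolved fluorescence sandwich ELISA, with pAb40 as capture and biotin-6E10 as detector antibody, each incubated at 4 °C.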
A general note: An ELISA detects its analyte on a solid surface through an enzyme-linked reagent.

The target in another experiment is Recombinant Cat D (Homo sapiens (Human), UniProt P07339). In words: In vitro enzymatic Cathepsin D (Cat D) FRET assay. The experiment is classed as biochemical. The conditions noted are these: read-out: IC50 IP (μM) CatD. An outline of the steps:
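Human Cat D expressed in CHO cells was incubated for one hour in 0.05 M citrate pH 3.5, 5 mM CHAPS, 10% DMSO final, with 20 nM quenched FRET peptide substrate. Reactions were stopped with Tris buffer raising pH to neutrality. Cleavage was read as fluorescence at excitation 500 nm, emission 580 nm.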

Chain of Recombinant Cat D (P07339 65-412): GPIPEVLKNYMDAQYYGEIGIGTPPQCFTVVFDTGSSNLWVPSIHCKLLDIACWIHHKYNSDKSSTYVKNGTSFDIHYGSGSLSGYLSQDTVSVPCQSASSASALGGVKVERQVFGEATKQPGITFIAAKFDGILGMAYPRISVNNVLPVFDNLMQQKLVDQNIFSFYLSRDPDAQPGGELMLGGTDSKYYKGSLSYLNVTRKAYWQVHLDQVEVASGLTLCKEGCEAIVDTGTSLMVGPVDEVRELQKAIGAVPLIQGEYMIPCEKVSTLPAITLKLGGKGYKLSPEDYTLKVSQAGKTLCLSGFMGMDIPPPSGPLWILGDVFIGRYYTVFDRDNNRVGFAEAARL

Turning to `C#CCOc1cnc(C(=O)Nc2ccc(F)c([C@@]3(C)N=C(N)S[C@@]4(C(F)F)C[C@@H]34)c2)c(C)c1` [Example 686, N-(3-((1S,5S,6S)-3-amino-1-(difluoromethyl)-5-methyl-2-thia-4-azabicyclo[4.1.0]hept-3-en-5-yl)-4-fluorophenyl)-3-methyl-5-(2-propyn-1-yloxy)-2-pyridinecarboxamide], the IC50 is 0.00167 µM at human recombinant BACE1, 0.0221 µM at human recombinant BACE2, 0.00967 µM in experiment [1] and 496 µM at Recombinant Cat D.
Turning to `COC[C@]12C[C@H]1[C@@](C)(c1cc(NC(=O)c3cnc(OCC4CC(F)(F)C4)cn3)cc(F)c1F)N=C(N)S2` [Example 1026, N-(3-((1S,5S,6S)-3-amino-1-(methoxymethyl)-5-methyl-2-thia-4-azabicyclo[4.1.0]hept-3-en-5-yl)-4,5-difluorophenyl)-5-((3,3-difluorocyclobutyl)methoxy)-2-pyrazinecarboxamide], the half-maximal inhibitory concentration (IC50) at human recombinant BACE1 was 0.00496 µM; at human recombinant BACE2 it was 0.115 µM; in experiment [1], 0.0936 µM; on Recombinant Cat D it was 475 µM.
In the case of `N#CC[C@]12C[C@H]1[C@@](CF)(c1cc(Nc3nccc4nc(OCc5ncco5)cnc34)ccc1F)N=C(N)S2` [Example 721, ((1R,5S,6S)-3-amino-5-(fluoromethyl)-5-(2-fluoro-5-((2-(1,3-oxazol-2-ylmethoxy)pyrido[3,4-b]pyrazin-5-yl)amino)phenyl)-2-thia-4-azabicyclo[4.1.0]hept-3-en-1-yl)acetonitrile], the IC50 is 0.00162 µM at human recombinant BACE1, 0.0677 µM at human recombinant BACE2, 0.00474 µM in experiment [1] and 2130 µM on Recombinant Cat D.
As for `COC[C@]12C[C@H]1[C@@](C)(c1cc(NC(=O)c3cnc(OCC(C)OC)cn3)cc(F)c1F)N=C(N)S2` (stereo partly drawn) [Example 1023, N-(3-((1S,5S,6S)-3-amino-1-(methoxymethyl)-5-methyl-2-thia-4-azabicyclo[4.1.0]hept-3-en-5-yl)-4,5-difluorophenyl)-5-(2-methoxypropoxy)pyrazine-2-carboxamide], the IC50 on human recombinant BACE1 came out at 0.00319 µM; at human recombinant BACE2, 0.204 µM; in experiment [1] it was 0.0135 µM; on Recombinant Cat D, 1360 µM.
The corresponding values for `Cc1cc(OCc2ncco2)cnc1C(=O)Nc1ccc(F)c([C@@]2(C)N=C(N)S[C@@]3(C(F)F)C[C@@H]23)c1` [Example 642, N-(3-((1S,5S,6S)-3-amino-1-(difluoromethyl)-5-methyl-2-thia-4-azabicyclo[4.1.0]hept-3-en-5-yl)-4-fluorophenyl)-3-methyl-5-(1,3-oxazol-2-ylmethoxy)-2-pyridinecarboxamide] are 0.00642 µM, 0.114 µM, 0.0351 µM and 434 µM.
The corresponding values for `COC[C@]12C[C@H]1[C@@](C)(c1cc(NC(=O)c3cnc(OCC4CC4)cn3)ccc1F)N=C(N)S2` [Example 1053, N-(3-((1S,5S,6S)-3-amino-1-(methoxymethyl)-5-methyl-2-thia-4-azabicyclo[4.1.0]hept-3-en-5-yl)-4-fluorophenyl)-5-(cyclopropylmethoxy)-2-pyrazinecarboxamide] are 0.0059 µM, 0.108 µM, 0.0029 µM and 1420 µM.
Consider `CC#CCCOc1cnc(C(=O)Nc2cc(F)c(F)c([C@@]3(C)N=C(N)S[C@@]4(COC)C[C@H]43)c2)cn1` [Example 1059, N-(3-((1S,5S,6S)-3-amino-1-(methoxymethyl)-5-methyl-2-thia-4-azabicyclo[4.1.0]hept-3-en-5-yl)-4,5-difluorophenyl)-5-(3-pentyn-1-yloxy)-2-pyrazinecarboxamide], for which the IC50 at human recombinant BACE1 is 0.011 µM; on human recombinant BACE2, 0.069 µM; in experiment [1], 0.02 µM; at Recombinant Cat D, 1320 µM.
Take `COC[C@]12C[C@H]1[C@@](C)(c1cc(NC(=O)c3ccc(Cl)cn3)cc(C)c1F)N=C(N)S2` [Example 1066, N-(3-((1S,5S,6S)-3-amino-1-(methoxymethyl)-5-methyl-2-thia-4-azabicyclo[4.1.0]hept-3-en-5-yl)-4-fluoro-5-methylphenyl)-5-chloro-2-pyridinecarboxamide]: the IC50 on human recombinant BACE1 is 0.00161 µM; at human recombinant BACE2, 0.00099 µM; in experiment [1], 0.00347 µM; on Recombinant Cat D it was over 400 µM.
The corresponding values for `CCOC(=O)/C=C/[C@]12C[C@H]1[C@@](CF)(c1cc(NC(=O)c3ccc(Cl)cn3)ccc1F)N=C(N)S2` [Example 755, (E)-ethyl 3-((1R,5S,6S)-3-amino-5-(5-(5-chloropicolinamido)-2-fluorophenyl)-5-(fluoromethyl)-2-thia-4-azabicyclo[4.1.0]hept-3-en-1-yl)acrylate] are 0.00147 µM, under 0.00203 µM, 0.00838 µM and 250 µM.
As for `COC[C@]12C[C@H]1[C@@](C)(c1cc(Nc3ncc(F)c4cc(OCc5ncco5)cnc34)cc(F)c1F)N=C(N)S2` [Example 950, N-(3-((1S,5S,6S)-3-amino-1-(methoxymethyl)-5-methyl-2-thia-4-azabicyclo[4.1.0]hept-3-en-5-yl)-4,5-difluorophenyl)-5-fluoro-3-(1,3-oxazol-2-ylmethoxy)-1,7-naphthyridin-8-amine], the IC50 at human recombinant BACE1 is 0.0051 µM; at human recombinant BACE2, 0.118 µM; in experiment [1] it was 0.104 µM; on Recombinant Cat D it was 384 µM.
For `CON(C)C(=O)[C@]12C[C@H]1[C@@](C)(c1cc(NC(=O)c3cnc(OCC(F)(F)F)cn3)ccc1F)N=C(N)S2` [Example 984, (1S,5S,6S)-3-amino-5-(2-fluoro-5-(5-(2,2,2-trifluoroethoxy)pyrazine-2-carboxamido)phenyl)-N-methoxy-N,5-dimethyl-2-thia-4-azabicyclo[4.1.0]hept-3-ene-1-carboxamide], the IC50 at human recombinant BACE1 was found to be 0.000858 µM; on human recombinant BACE2, 0.0217 µM; in experiment [1], 0.00125 µM; at Recombinant Cat D, 1110 µM.
For the compound `NC1=N[C@](CF)(c2cc(NC(=O)c3ccc(Cl)cn3)ccc2F)[C@@H]2C[C@]2(Cn2ccnn2)S1` [Example 722, N-(3-((1S,5S,6S)-3-amino-5-(fluoromethyl)-1-(1H-1,2,3-triazol-1-ylmethyl)-2-thia-4-azabicyclo[4.1.0]hept-3-en-5-yl)-4-fluorophenyl)-5-chloro-2-pyridinecarboxamide], the IC50 is 0.0118 µM at human recombinant BACE1, under 0.00203 µM on human recombinant BACE2, 0.0209 µM in experiment [1] and 684 µM at Recombinant Cat D.
Take `C[C@]1(c2cc(Nc3nccc4nc(OCc5ncco5)cnc34)cnc2F)N=C(N)S[C@]2(CO)[C@H]1C2(F)F` [Example 663, ((1S,5S,6R)-3-amino-7,7-difluoro-5-(2-fluoro-5-((2-(1,3-oxazol-2-ylmethoxy)pyrido[3,4-b]pyrazin-5-yl)amino)-3-pyridinyl)-5-methyl-2-thia-4-azabicyclo[4.1.0]hept-3-en-1-yl)methanol]: the IC50 turned out to be 0.00048 µM on human recombinant BACE1, 0.0174 µM on human recombinant BACE2, 0.00338 µM in experiment [1] and 601 µM on Recombinant Cat D.
Consider `NC1=N[C@](CF)(c2cc(NC(=O)c3cnc(OCc4ncco4)cn3)ccc2F)[C@@H]2C[C@]2(c2cnco2)S1` [Example 783, N-(3-((1S,5S,6S)-3-amino-5-(fluoromethyl)-1-(1,3-oxazol-5-yl)-2-thia-4-azabicyclo[4.1.0]hept-3-en-5-yl)-4-fluorophenyl)-5-(1,3-oxazol-2-ylmethoxy)-2-pyrazinecarboxamide], for which the IC50 at human recombinant BACE1 was 0.000501 µM; on human recombinant BACE2, 0.00245 µM; in experiment [1], 0.00485 µM; at Recombinant Cat D, over 400 µM.
As to `C#CCOc1cnc2c(Nc3cc(F)c(F)c([C@@]4(C)N=C(N)S[C@@]5(COC)C[C@H]54)c3)ncc(F)c2c1` [Example 951, N-(3-((1S,5S,6S)-3-amino-1-(methoxymethyl)-5-methyl-2-thia-4-azabicyclo[4.1.0]hept-3-en-5-yl)-4,5-difluorophenyl)-5-fluoro-3-(2-propyn-1-yloxy)-1,7-naphthyridin-8-amine], the IC50 at human recombinant BACE1 was 0.00233 µM; on human recombinant BACE2, 0.0497 µM; in experiment [1], 0.0603 µM; on Recombinant Cat D, 915 µM.
Regarding `Cc1cc(C#N)cnc1C(=O)Nc1ccc(F)c([C@@]2(CF)N=C(N)S[C@@]3(CO)C[C@H]32)c1` [Example 44, N-(3-((1S,5S,6S)-3-amino-5-(fluoromethyl)-1-(hydroxymethyl)-2-thia-4-azabicyclo[4.1.0]hept-3-en-5-yl)-4-fluorophenyl)-5-cyano-3-methyl-2-pyridinecarboxamide], the IC50 at human recombinant BACE1 (BACE1 FRET enzyme assay) was 0.00255 µM; on human recombinant BACE2 (BACE2 FRET enzyme assay) it was 0.00147 µM; in experiment [1] (BACE1 cell-based assay), 0.00215 µM; at Recombinant Cat D (Cathepsin D FRET enzyme assay), over 400 µM.
